What all share (assay type): functional
For assay [1], the system named is Mus musculus. In words: Analgesic activity in Swiss albino mouse assessed as inhibition of heat-induced paw licking or jumping behavior at 10 mg/kg, po administered after 15 sec of heat challenge measured after 30 mins post dose by Eddy's hot plate method. The note with it: 0.5 h. For orientation: In hot-plate and tail-flick tests a longer latency is read as antinociception.

In a further assay the test system is Klebsiella pneumoniae. Briefly: Antibacterial activity against Klebsiella pneumoniae after 3 to 4 days by serial plate dilution method.
A further assay has as its system Staphylococcus aureus. Briefly: Antibacterial activity against Staphylococcus aureus ATCC 25923 after 3 to 4 days by serial plate dilution method.
Assay [2] deals with Mus musculus. In words: Analgesic activity in Swiss albino mouse assessed as inhibition of heat-induced paw licking or jumping behavior at 10 mg/kg, po administered after 15 sec of heat challenge measured after 60 mins post dose by Eddy's hot plate method. The note with it: 1 h.
Assay [3] deals with Trichophyton mentagrophytes. In words: Antifungal activity against Trichophyton mentagrophytes after 3 to 4 days by serial plate dilution method.
Assay [4] deals with Mus musculus. In words: Analgesic activity in Swiss albino mouse assessed as inhibition of heat-induced paw licking or jumping behavior at 10 mg/kg, po administered after 15 sec of heat challenge measured after 90 mins post dose by Eddy's hot plate method. The note with it: 1.5 h.
Another assay relates to Aspergillus flavus. Briefly: Antifungal activity against Aspergillus flavus NCIM 524 after 3 to 4 days by serial plate dilution method.
Another assay concerns Rattus norvegicus. Briefly: Antiinflammatory activity in Wister albino rat assessed as inhibition of carrageenan-induced paw edema at 10 mg/kg, po administered 30 mins before carrageenan treatment measured after 3 hrs by plethysmometric analysis. On the technique in general: Carrageenan injected into the paw causes an acute inflammation.
The test system of the next assay is Pseudomonas aeruginosa. In words: Antibacterial activity against Pseudomonas aeruginosa ATCC 27853 after 3 to 4 days by serial plate dilution method.
Another assay concerns Aspergillus fumigatus. Briefly: Antifungal activity against Aspergillus fumigatus NCIM 902 after 3 to 4 days by serial plate dilution method.
Another assay has as its system Talaromyces marneffei. In words: Antifungal activity against Penicillium marneffei after 3 to 4 days by serial plate dilution method.
Another assay relates to Escherichia coli. In words: Antibacterial activity against Escherichia coli ATCC 25922 after 3 to 4 days by serial plate dilution method.

In brackets after ≈: the same amount, converted by molar mass.

`CC(C)Cc1ccc(C(C)c2nn(CN3CCN(c4ccc([N+](=O)[O-])cc4)CC3)c(=S)o2)cc1` (centres undefined): the inhibition in vivo at 10 mg/kg with Mus musculus [1] was determined as 30.6%; in the assay with Mus musculus [2] it was 36.2%; in the assay with Mus musculus [4] it was 44.8%; in the assay with Rattus norvegicus it was 75.1%. Further, the MIC against Klebsiella pneumoniae turned out to be 12.5 µg/mL (≈ 26 µM); against Staphylococcus aureus, 12.5 µg/mL (≈ 26 µM); in assay [3], 25 µg/mL (≈ 51.9 µM); against Aspergillus flavus, 25 µg/mL (≈ 51.9 µM); in the assay with Pseudomonas aeruginosa, 12.5 µg/mL (≈ 26 µM); against Aspergillus fumigatus, 25 µg/mL (≈ 51.9 µM). Moreover, the MIC against Talaromyces marneffei was found to be 25 µg/mL (≈ 51.9 µM); in the assay with Escherichia coli it was 12.5 µg/mL (≈ 26 µM).

For the compound `CSc1ccc(Cc2nn(CN3CCN(c4cccc(Cl)c4)CC3)c(=S)o2)cc1`, the inhibition in vivo at 10 mg/kg in the assay on Mus musculus [1] came out at 25.6%; in the assay on Mus musculus [2], 32%; in the assay with Mus musculus [4] it was 41.2%; in the assay with Rattus norvegicus, 74.7%. Besides, the MIC (with Klebsiella pneumoniae; against Staphylococcus aureus; in [3]; with Aspergillus flavus; against Pseudomonas aeruginosa; with Aspergillus fumigatus) was 12.5 µg/mL (≈ 28 µM) throughout. Further, the MIC with Talaromyces marneffei and in the assay with Escherichia coli was 12.5 µg/mL (≈ 28 µM) throughout.

The term inhibition in vivo denotes the drop in the measured response relative to a control, in per cent. Usually MIC stands for the least concentration at which growth counts as inhibited. High values mean a less susceptible organism, low ones a more susceptible organism.

The values are drawn from ChEMBL document CHEMBL1275314, “Synthesis and biological evaluation of some 1,3,4-oxadiazole derivatives” (Eur J Med Chem, 2010).
